As usually defined, the IC50 is the concentration at which inhibition is half-maximal.

T1 sequence (Q16539 whole entry): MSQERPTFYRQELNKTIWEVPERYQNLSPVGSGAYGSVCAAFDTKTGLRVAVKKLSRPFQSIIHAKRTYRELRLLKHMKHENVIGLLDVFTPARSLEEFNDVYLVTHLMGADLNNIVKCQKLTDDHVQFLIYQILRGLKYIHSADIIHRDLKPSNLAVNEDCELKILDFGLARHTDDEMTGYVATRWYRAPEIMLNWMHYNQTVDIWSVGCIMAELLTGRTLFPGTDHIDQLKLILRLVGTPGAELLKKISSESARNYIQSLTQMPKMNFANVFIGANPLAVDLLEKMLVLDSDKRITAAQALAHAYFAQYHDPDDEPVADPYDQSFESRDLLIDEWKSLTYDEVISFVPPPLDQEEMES

The assay addresses T1, human p38 kinase alpha (Homo sapiens, UniProt Q16539).
T1 construct: GST (N, cleaved yes); made in house; host or cells: E. coli DH10B
The assay is described as follows: p38 kinase in vitro assay, phosphorylation of biotinylated PHAS-I with 32P-ATP. The class given is biochemical. To be noted: in vitro P38-alpha kinase inhibition; read-out: P38 alpha kinase IC50. The method, then: The coding region of the human p38a cDNA was obtained by PCR-amplification from RNA isolated from the human monocyte cell line THP.1. […] Random primer, dNTP's and Superscript™ reagents were all purchased from Life-Technologies, Gaithersburg, Mass. The reaction was incubated at 42° C. for 1 hour. Amplification of p38 cDNA was performed by aliquoting 5 μl of the reverse transcriptase reaction into a 100 μl PCR reaction containing the following: 80 μl dH2O, 2 μl 50 mM DNTP's, 1 μl each of forward and reverse primers (50 pmol/μl), 10 μl of 10×buffer and 1 μl Expand™ polymerase (Boehringer Mannheim). The PCR primers incorporated BamHI sites onto the 5′ and 3′ end of the amplified fragment, and were purchased from Genosys. […] The PCR amplification was carried out in a DNA Thermal Cycler (Perkin Elmer) by repeating 30 cycles of 94° C. for 1 minute, 60° C. for 1 minute and 68° C. for 2 minutes. After amplification, excess primers and unincorporated dNTP's were removed from the amplified fragment with a Wizard™ PCR prep (Promega) and digested with BamHI (New England Biolabs). The BamHI digested fragment was ligated into BamHI digested PGEX 2T plasmid DNA (PharmaciaBiotech) using T-4 DNA ligase (New England Biolabs) as described by T. Maniatis, Molecular Cloning: A Laboratory Manual, 2nd ed. […] The ligation reaction was transformed into chemically competent E. coli DH10B cells purchased from Life-Technologies following the manufacturer's instructions. Plasmid DNA was isolated from the resulting bacterial colonies using a Promega Wizard™ miniprep kit.
Expression of Human p38a:
Overnight cultures were grown in-Luria Broth (LB) containing […] ampicillin. The next day, 500 ml of fresh LB was inoculated with 10 ml of overnight culture, and grown in a 2 liter flask at 37° C. with constant shaking until the culture reached an absorbance of 0.8 at 600 nm. Expression of the fusion protein was induced by addition of isopropyl b-D-thiogalactosidse (IPTG) to a final concentration of 0.05 mM. The cultures were shaken for three hours at room temperature, and the cells were harvested by centrifugation. The cell pellets were stored frozen until protein purification.
Purification of p38 Kinase-α:
All chemicals were from Sigma Chemical Co. unless noted. Twenty grams of E. coli cell pellet collected from five 1 L shake flask fermentations was resuspended in a volume of PBS (140 mM NaCl, 2.7 mM KCl, 10 mM Na2HPO4, 1.8 mM KH2PO4, pH 7.3) up to 200 ml. The cell suspension was adjusted to 5 mM DTT with 2 M DTT and then split equally into five 50 ml Falcon conical tubes. The cells were sonnicated (Ultrasonics model W375) with a 1 cm probe for 3×1 minutes (pulsed) on ice. Lysed cell material was removed by centrifugation (12,000×g, 15 minutes) and the clarified supernatant applied to glutathione-sepharose resin (Pharmacia).
Glutathione-sepharose Affinity Chromatography:
The resin was collected by centrifugation (600×g, 5 min) and washed with 2×150 ml PBS/1% Triton X-100, followed by 4×40 ml PBS. To cleave the p38 kinase from the GST-p38 fusion protein, the glutathione-sepharose resin was resuspended in 6 ml PBS containing 250 units thrombin protease (Pharmacia, specific activity>7500 units/mg) and mixed gently for 4 hours at room temperature. The glutathione-sepharose resin was removed by centrifugation (600×g, 5 min) and washed 2×6 ml with PBS. The PBS wash fractions and digest supernatant containing p38 kinase protein were pooled and adjusted to 0.3 mM PMSF.
Mono O Anion Exchange Chromatography:
The thrombin-cleaved p38 kinase was further purified by FPLC-anion exchange chromatography.
Take `CC(NC(=O)N(C)c1ccccc1)c1[nH]nc(-c2ccc(F)cc2)c1-c1ccncc1` (stereo not drawn) [Example B-0586]: the IC50 was determined as 810 nM.

Consider `CC(NC(=O)Nc1ccccc1O)c1[nH]nc(-c2ccc(F)cc2)c1-c1ccncc1` (stereo not drawn) [Example B-0587], for which the IC50 is 6840 nM.

Take `Cc1cccc(C)c1NC(=O)NC(C)c1[nH]nc(-c2ccc(F)cc2)c1-c1ccncc1` (stereo not drawn) [Example B-0588]: the half-inhibitory concentration (IC50) is 12800 nM.

Consider `C=CCNC(=O)NC(C)c1[nH]nc(-c2ccc(F)cc2)c1-c1ccncc1` (stereo not drawn) [Example B-0589], for which the IC50 came out at 1710 nM.

With `CC(NC(=O)NCCc1ccccc1)c1[nH]nc(-c2ccc(F)cc2)c1-c1ccncc1` (stereo not drawn) [Example B-0593], the IC50 was determined as 1220 nM.

With `COc1ccc(NC(=O)NC(C)c2[nH]nc(-c3ccc(F)cc3)c2-c2ccncc2)cc1` (stereo not drawn) [Example B-0596], the IC50 came to 20000 nM.

For the compound `CCN(CC)C(=O)NC(C)c1[nH]nc(-c2ccc(F)cc2)c1-c1ccncc1` (stereo not drawn) [Example B-0597], the IC50 came to 1680 nM.

As for `CCNC(=O)NC(C)c1[nH]nc(-c2ccc(F)cc2)c1-c1ccncc1` (stereo not drawn) [Example B-0598], the 50% inhibitory concentration (IC50) was determined as 2120 nM.

In the case of `CCCOC(=O)NC(C)c1[nH]nc(-c2ccc(F)cc2)c1-c1ccncc1` (stereo not drawn) [Example B-0602], the IC50 is 970 nM.

Take `CCOC(=O)NC(C)c1[nH]nc(-c2ccc(F)cc2)c1-c1ccncc1` (stereo not drawn) [Example B-0603]: the IC50 is 90 nM.

Take `CC(NC(=O)C1CCCN1)c1[nH]nc(-c2ccc(F)cc2)c1-c1ccncc1` (stereo not drawn) [Example B-0604]: the IC50 is 300 nM.

As for `CC(NC(=O)C1CCCN1)c1[nH]nc(-c2ccc(F)cc2)c1-c1ccncc1` (stereo not drawn) [Example B-0605], the IC50 turned out to be 180 nM.

As to `CC(C)OC(=O)NC(C)c1[nH]nc(-c2ccc(F)cc2)c1-c1ccncc1` (stereo not drawn) [Example B-0606], the IC50 worked out at 170 nM.

Regarding `CC(=O)Nc1nc(C)c(S(=O)(=O)NC(C)c2[nH]nc(-c3ccc(F)cc3)c2-c2ccncc2)s1` (stereo not drawn) [Example B-0607], the IC50 came out at 2790 nM.

Regarding `CC(NS(=O)(=O)c1ccc(Br)cc1)c1[nH]nc(-c2ccc(F)cc2)c1-c1ccncc1` (stereo not drawn) [Example B-0609], the IC50 was below 100 nM.

In the case of `CC(NS(=O)(=O)c1ccc(Cl)cc1)c1[nH]nc(-c2ccc(F)cc2)c1-c1ccncc1` (stereo not drawn) [Example B-0610], the IC50 was below 100 nM.

With `CC(NS(=O)(=O)CC12CCC(CC1=O)C2(C)C)c1[nH]nc(-c2ccc(F)cc2)c1-c1ccncc1` (stereo not drawn) [Example B-0611], the IC50 came to 650 nM.

As to `CC(NS(=O)(=O)c1cc(Cl)ccc1Cl)c1[nH]nc(-c2ccc(F)cc2)c1-c1ccncc1` (stereo not drawn) [Example B-0615], the IC50 was 80 nM.

As to `Cc1cc(C)c(S(=O)(=O)NC(C)c2[nH]nc(-c3ccc(F)cc3)c2-c2ccncc2)c(C)c1` (stereo not drawn) [Example B-0616], the half-maximal inhibitory concentration (IC50) amounted to 380 nM.

`CC(NS(=O)(=O)c1ccc2ccccc2c1)c1[nH]nc(-c2ccc(F)cc2)c1-c1ccncc1` (stereo not drawn) [Example B-0617]: the IC50 came out at 45 nM.

`CC(NS(=O)(=O)c1cccc2ccccc12)c1[nH]nc(-c2ccc(F)cc2)c1-c1ccncc1` (stereo not drawn) [Example B-0618]: the IC50 was determined as 370 nM.

For the compound `CC(NS(=O)(=O)Cc1ccccc1[N+](=O)[O-])c1[nH]nc(-c2ccc(F)cc2)c1-c1ccncc1` (stereo not drawn) [Example B-0619], the IC50 is below 100 nM.

Turning to `CC(NS(=O)(=O)c1cccc2cccnc12)c1[nH]nc(-c2ccc(F)cc2)c1-c1ccncc1` (stereo not drawn) [Example B-0620], the IC50 was determined as 1590 nM.

For the compound `CC(NS(=O)(=O)c1cccc2c(N(C)C)cccc12)c1[nH]nc(-c2ccc(F)cc2)c1-c1ccncc1` (stereo not drawn) [Example B-0621], the IC50 came to 360 nM.

For `CC(NS(=O)(=O)c1cccc(Cl)c1Cl)c1[nH]nc(-c2ccc(F)cc2)c1-c1ccncc1` (stereo not drawn) [Example B-0622], the half-inhibitory concentration (IC50) was 76 nM.

Take `CC(C)c1ccc(S(=O)(=O)NC(C)c2[nH]nc(-c3ccc(F)cc3)c2-c2ccncc2)cc1` (stereo not drawn) [Example B-0623]: the IC50 amounted to 120 nM.

For `Cc1c(Cl)cccc1S(=O)(=O)NC(C)c1[nH]nc(-c2ccc(F)cc2)c1-c1ccncc1` (stereo not drawn) [Example B-0624], the IC50 is 85 nM.

Turning to `CC(NS(=O)(=O)c1ccc(Cl)cc1Cl)c1[nH]nc(-c2ccc(F)cc2)c1-c1ccncc1` (stereo not drawn) [Example B-0625], the IC50 was determined as 23 nM.

For the compound `CC(NS(=O)(=O)c1ccc(F)cc1Cl)c1[nH]nc(-c2ccc(F)cc2)c1-c1ccncc1` (stereo not drawn) [Example B-0626], the IC50 is below 100 nM.

Turning to `Cc1ccc(F)cc1S(=O)(=O)NC(C)c1[nH]nc(-c2ccc(F)cc2)c1-c1ccncc1` (stereo not drawn) [Example B-0628], the IC50 worked out at 23 nM.

Regarding `CC(NS(=O)(=O)c1cc(Cl)c(Cl)s1)c1[nH]nc(-c2ccc(F)cc2)c1-c1ccncc1` (stereo not drawn) [Example B-0629], the IC50 turned out to be 200 nM.

As to `CC(NS(=O)(=O)c1c(Cl)cccc1Cl)c1[nH]nc(-c2ccc(F)cc2)c1-c1ccncc1` (stereo not drawn) [Example B-0630], the IC50 turned out to be 60 nM.

In the case of `CC(NS(=O)(=O)c1ccccc1Br)c1[nH]nc(-c2ccc(F)cc2)c1-c1ccncc1` (stereo not drawn) [Example B-0631], the IC50 is 65 nM.

In the case of `CC(NS(=O)(=O)c1cccc(Br)c1)c1[nH]nc(-c2ccc(F)cc2)c1-c1ccncc1` (stereo not drawn) [Example B-0632], the IC50 was below 100 nM.

With `CCCCOc1ccc(S(=O)(=O)NC(C)c2[nH]nc(-c3ccc(F)cc3)c2-c2ccncc2)cc1` (stereo not drawn) [Example B-0633], the IC50 worked out at 600 nM.

Consider `COc1ccc(OC)c(S(=O)(=O)NC(C)c2[nH]nc(-c3ccc(F)cc3)c2-c2ccncc2)c1` (stereo not drawn) [Example B-0634], for which the IC50 is 600 nM.

`CC(NS(=O)(=O)c1ccccc1C(F)(F)F)c1[nH]nc(-c2ccc(F)cc2)c1-c1ccncc1` (stereo not drawn) [Example B-0635]: the IC50 was 150 nM.

For the compound `CC(NS(=O)(=O)c1ccc(C(F)(F)F)cc1)c1[nH]nc(-c2ccc(F)cc2)c1-c1ccncc1` (stereo not drawn) [Example B-0636], the half-maximal inhibitory concentration (IC50) was below 100 nM.

`Cc1cccc(S(=O)(=O)NC(C)c2[nH]nc(-c3ccc(F)cc3)c2-c2ccncc2)c1` (stereo not drawn) [Example B-0638]: the IC50 was determined as 250 nM.

Turning to `CC(NS(=O)(=O)c1ccccc1Cl)c1[nH]nc(-c2ccc(F)cc2)c1-c1ccncc1` (stereo not drawn) [Example B-0640], the IC50 turned out to be 360 nM.

Take `CC(NS(=O)(=O)c1cc(Cl)cc(Cl)c1)c1[nH]nc(-c2ccc(F)cc2)c1-c1ccncc1` (stereo not drawn) [Example B-0641]: the 50% inhibitory concentration (IC50) is 580 nM.

On to `CC(NS(=O)(=O)c1ccc(Cl)c(Cl)c1)c1[nH]nc(-c2ccc(F)cc2)c1-c1ccncc1` (stereo not drawn) [Example B-0642], for which the IC50 was 490 nM.

For the compound `CC(NS(=O)(=O)c1ccc(F)c(Cl)c1)c1[nH]nc(-c2ccc(F)cc2)c1-c1ccncc1` (stereo not drawn) [Example B-0643], the IC50 amounted to 69 nM.

In the case of `Cc1cccc(Cl)c1S(=O)(=O)NC(C)c1[nH]nc(-c2ccc(F)cc2)c1-c1ccncc1` (stereo not drawn) [Example B-0644], the IC50 was found to be 58 nM.

Consider `Cc1ccc(C)c(S(=O)(=O)NC(C)c2[nH]nc(-c3ccc(F)cc3)c2-c2ccncc2)c1` (stereo not drawn) [Example B-0645], for which the IC50 amounted to 580 nM.

With `Cc1ccccc1S(=O)(=O)NC(C)c1[nH]nc(-c2ccc(F)cc2)c1-c1ccncc1` (stereo not drawn) [Example B-0646], the IC50 worked out at 260 nM.

Regarding `COc1ccc(C)cc1S(=O)(=O)NC(C)c1[nH]nc(-c2ccc(F)cc2)c1-c1ccncc1` (stereo not drawn) [Example B-0647], the concentration for half-maximal inhibition (IC50) is 1610 nM.

For the compound `CC(NS(=O)(=O)c1cccc(C(F)(F)F)c1)c1[nH]nc(-c2ccc(F)cc2)c1-c1ccncc1` (stereo not drawn) [Example B-0648], the IC50 is below 100 nM.

As to `CC(NS(=O)(=O)c1ccc2ccccc2c1)c1[nH]nc(-c2ccc(F)cc2)c1-c1ccncc1` (stereo not drawn) [Example B-0652], the IC50 was determined as 190 nM.

Take `Cc1noc(C)c1S(=O)(=O)NC(C)c1[nH]nc(-c2ccc(F)cc2)c1-c1ccncc1` (stereo not drawn) [Example B-0653]: the IC50 came to 2010 nM.

For `CC(NS(=O)(=O)c1cccc2nonc12)c1[nH]nc(-c2ccc(F)cc2)c1-c1ccncc1` (stereo not drawn) [Example B-0654], the IC50 stood at 5970 nM.

These data come from patent publication US6979686B1, “Substituted pyrazoles as p38 kinase inhibitors” (Pharmacia Corporation, priority 2001, dated 2005).
